{"source": "patent US5710151A", "about": "“Method of treating urinary bladder dysfunctions” (priority 1996, dated 1998)", "test_system": "vesico-anal reflex", "assay": "acetic acid-induced vesico-anal reflex", "type": "in vivo, rat", "settings": "for duration of the increase in vesico-anal reflex activity when administered alone / vesico-anal reflex activity when administered alone: atropine 30 μg/kg-1 mg/kg, oxybutynin 1-3 mg/kg", "excerpt": "The model of visceral nociception that was used in the testing of the compounds according to the method of this invention is the acetic acid-induced vesico-anal reflex. This model utilizes infusion of a dilute acetic acid solution into the urinary bladder as a nociceptive stimulus and records increases in electromyographic (EMG) activity from the anal sphincter as the primary measured response. Anal sphincter EMG activity is composed of 2 components, 1) a small, long duration action potential (ca. 50 msec) that is sensitive to muscarinic antagonists and 2) a larger, short duration action potential (ca. 2 msec) that is sensitive to neuromuscular blocking agents (i.e. mediated by nicotinic receptors). […] It is the striated anal sphincter muscle activity that 1) is associated with bladder activity, 2) is increased by acetic acid infusion into the bladder, and 3) represents the vesico-anal reflex.\nIn the acetic acid-induced vesico-anal reflex model, bladders of urethane-anesthetized rats were cannulated through the dome for continuous-infusion cystometrogram recordings. EMG electrodes were inserted into the anus and the peri-urethral musculature for recording anal and urethral sphincteric activity, respectively.\nFemale Sprague-Dawley rats (200-300 g) were anesthetized with 1.4 g/kg urethane (0.7 g administered i.p. and 0.7 g administered s.c.), which was supplemented with 1% isoflurane during surgery. The urinary bladder was exposed through an abdominal incision and cannulated with PE60 tubing attached to a 22 gauge needle that was inserted through the dome of the bladder. A purse-string suture (5-0 silk) through the bladder held the needle in place. The cannula was connected to an infusion pump (Harvard Apparatus, Natick Mass.) and a pressure transducer (Statham Gould, Cleveland, Ohio) through a 3 way stopcock to allow bladder filling and pressure measurement, respectively. The abdominal incision was covered with plastic wrap. A small incision was made in the perineum to allow placement of EMG electrodes into the periurethral musculature. EMG electrodes were also placed into the muscular tissue of the anus. EMG electrodes were connected to preamplifiers (Grass P511, Quincey, Mass.) with low and high pass filters set at 10 and 3000 HZ. […] A catheter inserted into the carotid artery was connected to a pressure transducer (Statham Gould, Cleveland, Ohio) to record arterial pressure, which was used to trigger a heart rate meter (Biotach, Gould, Cleveland, Ohio). A catheter was inserted into the trachea to allow for artificial respiration and monitoring of expired CO2 (Sensor Medics. Anaheim, Calif.).\nAfter establishing control levels of anal and urethral activity, compounds were administered intravenously. Oxotremorine sesquifumarate (Sigma Chemicals, St. Louis, Mo.), atropine sulfate (RBI, Natick, Mo.), (-) scopolamine methyl bromide (RBI), physostigmine free base (Sigma Chemicals), neostigmine bromide (Sigma) and the test compounds were all dissolved in physiological saline.", "key": {"[1]": {"settings": "0.5% acetic acid infused into the bladder or urethra"}}, "note": "Where a name gives a salt, the structure may show the parent alone.", "data": [{"smiles": "O=C1CCCN1CC#CCN1CCCC1", "note": "[Oxotremorine, Oxotremorine sesquifumarate]", "values": [{"measurement": "inhibition of vesico-anal reflex activity (in words)", "setting": "oxotremorine 1-30 μg/kg iv, test compounds 0.01-1.0 mg/kg iv", "result": "dose-dependent inhibition of vesico-anal reflex activity"}, {"measurement": "inhibition of vesico-anal reflex activity (to % of control)", "setting": "oxotremorine 1-30 μg/kg iv, urethane-anesthetized rats", "result": "10 % of control"}]}, {"smiles": "CCN(CC)CC#CCOC(=O)C(O)(c1ccccc1)C1CCCCC1", "note": "(stereo not drawn) [oxybutynin]", "values": [{"measurement": "duration of the increase in vesico-anal reflex activity when administered alone", "result": 15, "unit": "min"}, {"measurement": "vesico-anal reflex activity when administered alone", "result": "robust, but transient (15 min.), increases in vesico-anal reflex activity"}]}, {"smiles": "CN1C2CCC1CC(OC(=O)C(CO)c1ccccc1)C2", "note": "(stereo not drawn) [atropine, atropine sulfate]", "values": [{"measurement": "duration of the increase in vesico-anal reflex activity when administered alone", "result": 15, "unit": "min"}, {"measurement": "vesico-anal reflex activity when administered alone", "result": "robust, but transient (15 min.), increases in vesico-anal reflex activity"}, {"measurement": "reversal of the cholinergic agonist-induced inhibition of vesico-anal reflex activity", "setting": "atropine 0.3-1 mg/kg", "result": "reversed"}]}, {"smiles": "CNC(=O)Oc1ccc2c(c1)[C@]1(C)CCN(C)[C@@H]1N2C", "note": "[physostigmine, physostigmine free base]", "values": [{"measurement": "suppression of the VA reflex by cholinesterase inhibitor", "setting": "centrally active (physostigmine) vs peripherally-restricted (neostigmine)", "result": "suppressed the VA reflex in a dose-dependent, atropine-sensitive manner"}]}, {"smiles": "C[N+]1(C)[C@@H]2C[C@@H](OC(=O)[C@H](CO)c3ccccc3)C[C@H]1[C@@H]1O[C@@H]12", "note": "[Scopolamine methyl bromide, (-) scopolamine methyl bromide]", "values": [{"measurement": "blocking of the cholinergic agonist-mediated inhibition of the vesico-anal reflex", "setting": "scopolamine methyl bromide 1-30 ug/kg, peripherally-restricted", "result": "ineffective"}]}, {"smiles": "CC(=O)O", "note": "[acetic acid]", "values": [{"measurement": "anal sphincter activity", "setting": "[1]", "result": "pronounced increases in anal sphincter activity"}, {"measurement": "bladder contractile activity and urethral sphincter activity", "setting": "[1]", "result": "modest increases in bladder contractile activity and urethral sphincter activity"}, {"measurement": "duration of acetic acid-induced increase in vesico-anal reflex activity", "setting": "in 95% of the animals", "result": "over 2 hours"}]}]}
